One series deals with Plasmodium falciparum. The experiment in a line: Antimalarial activity against multi-drug resistant Plasmodium falciparum K1 infected in human erythrocytes assessed as parasite growth inhibition incubated for 24 hrs by [G-3H]hypoxanthine uptake assay. The format is functional, organism-based. The note with it: K1, Erythrocyte.
The nature of series [1]: Cytotoxicity against African green monkey Vero cells assessed as cell growth inhibition by GFP fluorescence based assay. The note with it: African green monkey (Chlorocebus sabaeus). The format is toxicity.

Drawing on ChEMBL document CHEMBL5370614, “Antimalarial Lanostane Dimers from Artificially Cultivated Fruiting Bodies of Ganoderma weberianum” (J Nat Prod, 2023), this text covers IC50 for 19 molecules.

Some results are limits rather than exact numbers.

For the molecule `C[C@H](CC[C@@H](O)[C@@](C)(O)CO)[C@H]1CC[C@@]2(C)C3=CC[C@H]4C(C)(C)C(=O)CC[C@]4(C)C3=CC[C@]12C`, the IC50 with Plasmodium falciparum is more than 21 µM; in series [1], more than 106 µM.

For `C[C@H](CC[C@@H](OC(=O)[C@@H](C)CC(=O)C[C@@H](C)[C@H]1C[C@@H](O)[C@@]2(C)C3=C(C(=O)C[C@]12C)[C@@]1(C)CC[C@@H](O)C(C)(C)[C@@H]1CC3=O)[C@@](C)(O)CO)[C@H]1CC[C@@]2(C)C3=C(CC[C@]12C)[C@@]1(C)CCC(=O)C(C)(C)[C@@H]1C[C@H]3O`, the figures for the IC50 (with Plasmodium falciparum; in series [1]) were 0.67 µM and 17 µM, respectively.

For `C[C@H](CC(=O)C[C@@H](C)[C@H]1C[C@@H](O)[C@@]2(C)C3=C(C(=O)C[C@]12C)[C@@]1(C)CCC(=O)C(C)(C)[C@@H]1CC3=O)C(=O)O[C@H](CC[C@@H](C)[C@H]1CC[C@@]2(C)C3=CC[C@H]4C(C)(C)C(=O)CC[C@]4(C)C3=CC[C@]12C)[C@@](C)(O)CO`, the IC50 in the series with Plasmodium falciparum was determined as 2.33 µM; in series [1], 9 µM.

On to `C.C[C@H](CC[C@@H](OC(=O)[C@@H](C)CC(=O)C[C@@H](C)[C@H]1C[C@@H](O)[C@@]2(C)C3=C(C(=O)C[C@]12C)[C@@]1(C)CC[C@@H](O)C(C)(C)[C@@H]1CC3=O)[C@@](C)(O)CO)[C@H]1CC[C@@]2(C)C3=CC[C@H]4C(C)(C)C(=O)CC[C@]4(C)C3=CC[C@]12C`, for which the IC50 with Plasmodium falciparum came out at 1.3 µM; in series [1], 9.2 µM.

For `C[C@H](CC(=O)C[C@H](C)C(=O)O)[C@H]1C[C@H](O)[C@@]2(C)C3=C(C(=O)C[C@]12C)[C@@]1(C)CCC(=O)C(C)(C)[C@@H]1C[C@H]3O`, the results for the IC50 (with Plasmodium falciparum; in series [1]) were 19 µM and more than 97 µM, respectively.

Regarding `C[C@H](CC(=O)C[C@H](C)C(=O)O)[C@H]1C[C@H](O)[C@@]2(C)C3=C(C(=O)C[C@]12C)[C@@]1(C)CC[C@@H](O)C(C)(C)[C@@H]1CC3=O`, the IC50 is more than 19 µM with Plasmodium falciparum and more than 97 µM in series [1].

For the molecule `C[C@H](CC(=O)C[C@H](C)C(=O)O[C@@H](CC[C@@H](C)[C@H]1C[C@H](O)[C@@]2(C)C3=C(CC[C@]12C)[C@@]1(C)CCC(=O)C(C)(C)[C@@H]1CC3)[C@](C)(O)CO)[C@H]1C[C@@H](O)[C@@]2(C)C3=C(C(=O)C[C@]12C)[C@@]1(C)CC[C@@H](O)C(C)(C)[C@@H]1CC3=O`, the IC50 in the series with Plasmodium falciparum is 0.23 µM; in series [1] it was 13 µM.

In the case of `C[C@H](CC[C@H](O)[C@](C)(O)COC(=O)[C@@H](C)CC(=O)C[C@@H](C)[C@H]1C[C@@H](O)[C@@]2(C)C3=C(C(=O)C[C@]12C)[C@@]1(C)CC[C@@H](O)C(C)(C)[C@@H]1CC3=O)[C@H]1CC[C@@]2(C)C3=CC[C@H]4C(C)(C)C(=O)CC[C@]4(C)C3=CC[C@]12C`, the values for the IC50 (with Plasmodium falciparum; in series [1]) were 3.3 µM and 24 µM, respectively.

Regarding `C[C@H](CC(=O)C[C@H](C)C(=O)O)[C@H]1C[C@H](O)[C@@]2(C)C3=C(C(=O)C[C@]12C)[C@@]1(C)CC[C@@H](O)C(C)(C)[C@@H]1CC3`, the IC50 in the series on Plasmodium falciparum is more than 20 µM; in series [1], more than 100 µM.

For `C[C@H](CC[C@@H](O)[C@@](C)(O)COC(=O)[C@@H](C)CC(=O)C[C@@H](C)[C@H]1C[C@@H](O)[C@@]2(C)C3=C(C(=O)C[C@]12C)[C@@]1(C)CCC(=O)C(C)(C)[C@@H]1CC3=O)[C@H]1CC[C@@]2(C)C3=CC[C@H]4C(C)(C)C(=O)CC[C@]4(C)C3=CC[C@]12C`, the IC50 in the series with Plasmodium falciparum is 1.09 µM; in series [1] it was more than 52 µM.

In the case of `C[C@H](CC(=O)C[C@H](C)C(=O)OC[C@@](C)(O)[C@@H](O)CC[C@@H](C)[C@H]1C[C@H](O)[C@@]2(C)C3=C(CC[C@]12C)[C@@]1(C)CCC(=O)C(C)(C)[C@@H]1CC3)[C@H]1C[C@@H](O)[C@@]2(C)C3=C(C(=O)C[C@]12C)[C@@]1(C)CCC(=O)C(C)(C)[C@@H]1CC3=O`, the IC50 was 0.035 µM with Plasmodium falciparum and 19 µM in series [1].

Consider `C[C@H](CC[C@H](O)[C@](C)(O)COC(=O)[C@@H](C)CC(=O)C[C@@H](C)[C@H]1C[C@@H](O)[C@@]2(C)C3=C(C(=O)C[C@]12C)[C@@]1(C)CCC(=O)C(C)(C)[C@@H]1CC3=O)[C@H]1CC[C@@]2(C)C3=CC[C@H]4C(C)(C)C(=O)CC[C@]4(C)C3=CC[C@]12C`, for which the IC50 with Plasmodium falciparum was 0.77 µM; in series [1], more than 52 µM.

As to `C[C@H](CC(=O)C[C@H](C)C(=O)O)[C@H]1C[C@H](O)[C@@]2(C)C3=C(C(=O)C[C@]12C)[C@@]1(C)CCC(=O)C(C)(C)[C@@H]1CC3=O`, the IC50 was more than 19 µM with Plasmodium falciparum and more than 97 µM in series [1].

Regarding `C[C@H](CC(=O)C[C@H](C)C(=O)O[C@@H](CC[C@@H](C)[C@H]1C[C@H](O)[C@@]2(C)C3=C(CC[C@]12C)[C@@]1(C)CCC(=O)C(C)(C)[C@@H]1CC3)[C@](C)(O)CO)[C@H]1C[C@@H](O)[C@@]2(C)C3=C(C(=O)C[C@]12C)[C@@]1(C)CCC(=O)C(C)(C)[C@@H]1CC3=O`, the IC50 in the series with Plasmodium falciparum was found to be 0.057 µM; in series [1] it was 8.1 µM.

Regarding `C[C@H](CC(=O)C[C@H](C)C(=O)O)[C@H]1C[C@H](O)[C@@]2(C)C3=C(C(=O)C[C@]12C)[C@@]1(C)CCC(=O)C(C)(C)[C@@H]1CC3`, the IC50 in the series on Plasmodium falciparum was more than 20 µM; in series [1], more than 100 µM.

For the molecule `C[C@H](CC[C@H](OC(=O)[C@@H](C)CC(=O)C[C@@H](C)[C@H]1C[C@@H](O)[C@@]2(C)C3=C(C(=O)C[C@]12C)[C@@]1(C)CC[C@@H](O)C(C)(C)[C@@H]1CC3=O)[C@](C)(O)CO)[C@H]1CC[C@@]2(C)C3=C(CC[C@]12C)[C@@]1(C)CCC(=O)C(C)(C)[C@@H]1C[C@H]3O`, the IC50 with Plasmodium falciparum was 0.39 µM; in series [1] it was 2.3 µM.

For the molecule `C[C@H]1[C@@H](O)O[C@@H]2O[C@@]3(C)CC[C@H]4[C@H](C)CC[C@@H]1[C@@]24OO3` [ARTENIMOL], in the series on Plasmodium falciparum, the IC50 is 0.002 µM.

For `Cc1c2ccncc2c(C)c2c1[nH]c1ccccc12` [ELLIPTECINE], the IC50 in series [1] was 2.9 µM.

For the molecule `C[C@H](CC[C@H](O)[C@](C)(O)CO)[C@H]1CC[C@@]2(C)C3=CC[C@H]4C(C)(C)C(=O)CC[C@]4(C)C3=CC[C@]12C` [GANODERMANONTRIOL], the IC50 in the series with Plasmodium falciparum is more than 21 µM; in series [1], more than 106 µM.

The IC50 is the midpoint of a concentration-inhibition curve.
